Where two headings read alike, the source gives them in different places.
What was measured:
[1] = target: hERG ion channel (Homo sapiens, UniProt Q12809); test: hERG QPatch automated patch clamp; assay type: cell-based; conditions: CHO cells stably expressing hERG, QPatch 48, tail current
Protocol: hERG IC50 data was supplied by Metrion using their standard assay protocol briefly detailed below.
hERG ion channel screening was assayed in CHO cells stably expressing the human ether-á-go-go related gene, using the QPatch 48 automated, chip-based planar patch clamp device. A Gigaohm seal between the cell membrane and treated silicon surface was obtained and specific external and internal buffered solutions applied to cells prior to recording. Following baseline vehicle treatment, compounds were applied in increasing concentrations (8 pt CRC), effects on hERG tail current amplitudes were measured in two-minute recordings.

[2] = system: HUVEC; test: HUVEC Cell Viability (CV) assay; assay type: cell-based, human; conditions: for IC50: Homo sapiens, alamarBlue
Protocol: Cells are seeded at 10,000 cells/well in 96-well plates in HUVEC specific cell culture media. Cells are plated and cultured overnight (16-24 h) at 37° C. After the overnight culture, cells are washed and fed with the Assay Medium. Test compounds are applied and incubated with the cells for the designated time period, after which the cell viability is measured by alamarBlue method. […] The final DMSO concentration is 1%.
Fluorescence readings are recorded after the test compound and alamarBlue incubation. The excitation and emission wavelengths are 530 nm and 590 nm, respectively.
The percent of control is calculated by comparing the readings in the presence of the test compound to the vehicle control. Subsequently, the percent inhibition is calculated by subtracting the percent control activity from 100. IC50 values (concentration causing a half-maximal inhibition of the control value) are determined by non-linear regression analysis of the concentration-response curves using the Hill equation.
The reference compound used for this assay is Staurosporine.

[3] = system: SC-hCMs (stem cell cardiomyocytes); test: Cardiomyocyte assay (CRL), iPSC cardiomyocytes; assay type: cell-based, human; conditions: for effect on sodium spike amplitude vs. control (given as reduction for nilotinib and Example 39): 10 μM after 48 hours; for ΔΔ Na Spike Amp at 10 μM, 48 h (%): corrected by time matched controls
Protocol: All measurements were performed at physiological temperature in a tissue culture incubator (37° C.; 5% CO2). Test article, positive controls and vehicle were added in a sterile tissue culture hood.
At least 10 h before compound addition SC-hCMs were exposed to the fresh culture medium. Before compound addition a one-minute recording of field potentials and impedance signals (baseline) was obtained. Test articles, vehicle and positive controls were added as a 2× concentration. One-minute recordings were obtained 0.5, 1, 2, 24 and 48 h after test article addition.
At the time of drug application, culture medium was added to an independent 96 well plate that was incubated in a tissue culture incubator for 48 h. This culture medium was used as the blank of the cTnI release assay.
After the 48 h exposure recording, 150 μL of each well was centrifuged to remove debris. The supernatant was collected and frozen for later cTnI content analysis using an ELISA plate according the manufacturer's instructions (Abcam, cat #ab200016).
Data was stored on the Charles River Laboratories computer network for off-line analysis. Data acquisition was performed using RTCA Cardio Software.
Data analysis was performed using RTCA Cardio Software, Microsoft Excel and Matlab scripts. Data were reported as mean±SEM.
The following field potential parameters were quantitated: Sodium Spike amplitude, Sodium Spike Rate, field potential duration (FPD), Bazett corrected field potential duration (FPDcB), and dysrhythmic events if present.
The following impedance parameters were quantitated: Cell Index, peak amplitude, relaxation from peak to 50% amplitude (Rel50) and twitch duration.
The sodium spike is the voltage signal produced by the propagation of the depolarizing wave (positive peak) and the local activation of sodium channels (negative peak). The sodium spike amplitude is the voltage difference (in […]) between the positive and negative peaks of the sodium spike. The Sodium Spike Rate is a measure of the rate of sodium spike generation (spikes/min) produced by the spontaneous beating of stem cell cardiomyocytes.
Abnormal rhythm activity was characterized by the presence of the following proarrhythmic markers:
Triggered activity: Triggered activity (TA) is activity characterized by the presence of voltage oscillations during the repolarization period (Early After Depolarizations, EADs) or after the repolarization is completed (Delayed After Depolarizations, DADs). They are produced by different mechanisms. EADs are due to reactivation of sodium and calcium currents due to prolongation of the action potential. DADs are due to transient releases of calcium from intracellular calcium stores. Both EADs and DADs can trigger action potentials (ectopic beats, EB).
Impedance instability: Impedance instability (II) consist of small oscillations of the impedance signal during the slower relaxation phase of the impedance twitch sometimes associated with small oscillations of the field potential (FPO). […] II informs about the possibility of drug-induced delayed repolarization setting the background where more robust proarrhythmic markers like EADs and DADs occur.
The SEM of the difference was calculated according to the following equation ΔΔSEM=(SEMtreatment2+SEMcontrol2)0.5.
The statistical analysis includes 1) a Student paired t-test to evaluate the changes respect to baseline and, 2) a multi-comparison analysis (Dunnett's test) of A % changes respect to time matched controls. An alpha probability of 0.05 was considered significant.

[4] = system: HUVEC (human umbilical venous endothelial cells); test: HUVEC Tube Formation assay; assay type: cell-based; conditions: 18 h incubation, read-out: Tube formation GI50
Protocol: HUVEC (human umbilical venous endothelial cells, 1.5×10^4/well, ATCC CRL-1730) are placed in an earlier prepared 96-well plate. Test substance and/or vehicle is then added to each well in a final concentration of 0.4% DMSO in growth medium under an atmosphere of 5% CO2 at 37° C. After an 18 h incubation period, morphology of the endothelial cell tubes, which resemble a capillary-like network, are evaluated by a confocal high-content imaging system. Disruption (anti-angiogenesis) of total tube length is measured from each photograph and determined relative to the vehicle control group. […] Compounds are screened at 30, 3, 0.3, 0.03 and 0.003 μM (or μg/mL) in triplicate.

[5] = target: T1, recombinant human P450 enzyme 1A1 (Homo sapiens, UniProt P04798); test: Formation of reactive metabolites (glutathione adduct) by CYP1A1 with human liver cytosol; assay type: in vitro ADME; conditions: 50 μM, human liver cytosol + recombinant CYP1A1, NADPH and GSH, 60 min
T1 construct: host or cells: Bacterial membranes (bactosomes), inferred from the named control preparation
T1 sequence (P04798 1-512): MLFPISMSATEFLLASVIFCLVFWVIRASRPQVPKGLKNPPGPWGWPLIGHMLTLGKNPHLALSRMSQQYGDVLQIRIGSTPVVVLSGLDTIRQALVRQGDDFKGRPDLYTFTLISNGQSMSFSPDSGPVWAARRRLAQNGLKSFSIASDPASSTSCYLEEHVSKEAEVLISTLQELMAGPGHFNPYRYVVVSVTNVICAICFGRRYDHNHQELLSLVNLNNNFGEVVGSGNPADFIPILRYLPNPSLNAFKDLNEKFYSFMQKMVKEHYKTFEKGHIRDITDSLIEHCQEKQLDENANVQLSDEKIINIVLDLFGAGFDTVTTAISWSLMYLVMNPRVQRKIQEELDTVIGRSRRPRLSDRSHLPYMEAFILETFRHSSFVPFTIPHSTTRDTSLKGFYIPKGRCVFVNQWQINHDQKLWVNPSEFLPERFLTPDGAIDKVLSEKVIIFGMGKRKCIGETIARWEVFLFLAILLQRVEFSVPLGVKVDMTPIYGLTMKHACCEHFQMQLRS
Protocol: Investigations into the potential for test compound to form a reactive metabolite were performed using an adapted method detailed by De Lin et al. Briefly, test compound was pre-incubated (n=2; 50 μM substrate concentration) at 37° C. for 5 min with mixed-gender human liver cytosol (1 mg/mL total protein concentration) in 100 mM phosphate buffer (pH 7.4) with 5 mM MgCl2 in the presence of recombinant human P450 enzyme 1A1 (100 nM), in the presence and absence of 5 mM glutathione. At the end of the pre-incubation period, 2 mM NADPH was added to each sample and the mixture incubated at 37° C. for 60 min. Immediately following the addition of NADPH and after the 60 min incubation period, aliquots of each sample were mixed with MeCN (containing internal standard) to terminate the reaction and precipitate the proteins.
Samples were mixed, centrifuged and following appropriate dilution, supernatants were analysed by LC-MS utilising a high-resolution mass spectrometer to perform metabolite identification and characterisation analysis.

[6] = system: HUVEC (human umbilical venous endothelial cells); conditions: HUVEC tube formation reference; read-out: expected GI50 of reference compound; cited from earlier work

Sequence of hERG ion channel (Q12809 whole entry): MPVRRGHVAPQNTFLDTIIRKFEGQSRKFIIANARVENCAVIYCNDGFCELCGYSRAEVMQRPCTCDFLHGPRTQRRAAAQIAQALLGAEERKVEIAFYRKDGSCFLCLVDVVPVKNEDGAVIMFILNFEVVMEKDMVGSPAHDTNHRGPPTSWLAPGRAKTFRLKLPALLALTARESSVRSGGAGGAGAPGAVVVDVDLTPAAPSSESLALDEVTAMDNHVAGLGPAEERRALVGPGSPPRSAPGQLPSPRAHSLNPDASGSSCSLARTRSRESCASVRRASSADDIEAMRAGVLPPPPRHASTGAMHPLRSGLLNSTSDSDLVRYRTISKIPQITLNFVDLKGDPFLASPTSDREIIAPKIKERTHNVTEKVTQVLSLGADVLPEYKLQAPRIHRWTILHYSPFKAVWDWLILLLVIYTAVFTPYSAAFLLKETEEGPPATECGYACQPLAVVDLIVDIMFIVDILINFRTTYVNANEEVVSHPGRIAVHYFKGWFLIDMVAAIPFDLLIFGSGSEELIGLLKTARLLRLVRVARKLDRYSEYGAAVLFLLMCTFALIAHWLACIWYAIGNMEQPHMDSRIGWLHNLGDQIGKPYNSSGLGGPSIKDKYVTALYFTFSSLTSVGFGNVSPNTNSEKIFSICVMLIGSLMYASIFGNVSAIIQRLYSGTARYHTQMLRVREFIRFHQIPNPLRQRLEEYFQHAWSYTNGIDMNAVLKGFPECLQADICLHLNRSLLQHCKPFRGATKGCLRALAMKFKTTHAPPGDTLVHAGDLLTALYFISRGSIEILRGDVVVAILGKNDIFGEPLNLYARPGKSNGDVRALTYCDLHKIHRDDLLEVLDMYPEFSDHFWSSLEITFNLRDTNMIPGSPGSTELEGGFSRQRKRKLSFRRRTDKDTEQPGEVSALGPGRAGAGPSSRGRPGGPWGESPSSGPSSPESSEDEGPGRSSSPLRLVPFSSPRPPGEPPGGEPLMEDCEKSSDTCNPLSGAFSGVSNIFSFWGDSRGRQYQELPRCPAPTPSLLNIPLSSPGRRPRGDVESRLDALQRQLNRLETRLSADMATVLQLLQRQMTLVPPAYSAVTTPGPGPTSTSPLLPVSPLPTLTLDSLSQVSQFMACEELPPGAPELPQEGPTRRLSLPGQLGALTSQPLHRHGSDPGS

| Structure (SMILES) | IC50 [1] [µM] | IC50 [2] [µM] | effect on sodium spike amplitude vs. control (given as reduction for nilotinib and Example 39) [3] [%] | Proarrhythmic Markers at 10 μM, 48 h [3] | ΔΔ Na Spike Amp at 10 μM, 48 h (%) [3] [%] | GI50 [4] [µM] | formation of direct glutathione adduct [5] | formation of direct glutathione adduct ([5]; listed as ponatinib) | effect on cell viability compared to the compounds of the invention [2] [fold] | cTnI release / secretion ([3]; 10 μM (48 h), relative to vehicle) | GI50 [6] [µM] |
| --- | --- | --- | --- | --- | --- | --- | --- | --- | --- | --- | --- |
| Cc1ccc(C(=O)Nc2cc3n(n2)CCCC3(F)F)cc1C#Cc1cccnc1 [Example 97, N-(4,4-difluoro-6,7-dihydro-5H-pyrazolo[1,5-a]pyridin-2-yl)-4-methyl-3-[2-(3-pyridyl)ethynyl]benzamide] | > 10 | 3.6 | 2.2 | Not Observed | 2.20 | > 10 | – | – | – | – | – |
| Cc1ccc(C(=O)Nc2ccc(CN3CCN(C)CC3)c(C(F)(F)F)c2)cc1C#Cc1cnc2cccnn12 [Ponatinib, reference compound] | – | – | – | – | – | – | forms a glutathione adduct | forms a significant direct glutathione adduct | ~10 | increased troponin (cTnI) secretion | – |
| Cc1ccc(C(=O)Nc2cn3c(n2)COCC3(C)C)cc1C#Cc1cccnc1 [Example 39, N-(5,5-dimethyl-6,8-dihydroimidazo[2,1-c][1,4]oxazin-2-yl)-4-methyl-3-[2-(3-pyridyl)ethynyl]benzamide] | > 10 | 21 | 43 | Not Observed | −43.3 | > 30 | – | – | – | – | – |
| Cc1ccc(C(=O)Nc2ccc(S(=O)(=O)O)c3cc(S(=O)(=O)O)cc(S(=O)(=O)O)c23)cc1NC(=O)c1cccc(NC(=O)Nc2cccc(C(=O)Nc3cc(C(=O)Nc4ccc(S(=O)(=O)O)c5cc(S(=O)(=O)O)cc(S(=O)(=O)O)c45)ccc3C)c2)c1 [Suramin] | – | – | – | – | – | – | – | – | – | – | 15 |

Reference: patent publication US20230014226A1, “NEW COMPOUNDS AND METHODS” (BenevolentAI Bio Limited, priority 2019, published 2023)
